Results on two molecules are retold here after US5932580A, “PDGF receptor kinase inhibitory compounds their preparation and compositions” (priority 1997, dated 1999).

The term IC50 denotes the concentration needed to halve the response being measured.

Test [1] concerns PDGFR. The experiment in a line: PDGFR autophosphorylation, isolated membranes or intact Swiss 3T3 cells. Type of test: biochemical. Conditions: read-out: IC50 (50% inhibition of phosphorylation) PDGFR. As to the method: Assay of receptor autophosphorylation in intact 3T3 cells: Confluent Swiss 3T3 cells in 24-well plates (Nunc) were incubated for 20-24 hours in serum-free DMEM. Subsequently, tyrphostins were added at concentrations ranging from 0 to 100 μM (final DMSO concentration, 0.5%) and the incubation was continued for 6-8 hours. The cells were then stimulated with 100 ng/ml PDGF-BB for 5 min at room temperature or 600 ng/ml EGF for 2.5 min on ice. The growth factor treatment was terminated by washing twice with ice-cold PBS and the cells were scraped off the wells in 60 μl lysis buffer containing 20 mM Hepes (pH 7.4), 150 mM NaCl, 1% Triton X-100, 10 mM sodium pyrophosphate, 50 mM NaF, 2 mM sodium-o-vanadate, 20 μm zinc acetate, 10 nM EDTA, 2 mM [ethylenebis(oxyethilenenitrilo)] tetraacetic acid, 1 mM phenylmethylsulfonyl fluoride, and 5 μg/ml leupeptin.
The cell lysates were clarified by centrifugation (cooled microfuge, 17,000 rpm, 15 min) and analyzed by SDS-PAGE (6.5% gels) and immunoblotting with anti-phosphotyrosine antibodies (either PY 20, ICN, and subsequently a peroxidase-coupled secondary antibody, or RC20-peroxidase conjugate, Affinity, Nottingham, United Kingdom). The blots were developed with a chemiluminescence detection system (Western Light, Tropix, or ECL, Amersham). In some experiments PDGF receptors were immunoprecipitated with PDGF-R3 or DIG-1 antibodies as described prior to the analysis by immunoblotting with anti-phosphotyrosine antibodies.
Membrane autophosphorylation assays: Membranes were prepared from confluent cultures of Swiss 3T3 cells as described. For measuring receptor autophosphorylation, 10 μg membrane protein per assay were incubated for 20 min on ice in the presence of 1.2 μg/ml EGF or 2 μg/ml PDGF, or both; 50 mM Hepes (pH 7.5); and 3 mm MnCl2 (final concentrations) in a volume of 45 μl. […] For quantification of radioactivity in electrophoresis gels, a Phospho-Imager (Molecular Dynamics, Fuji, or Bio-Rad) was used according to the instructions of the manufacturers. […]

The target of test [2] is T1, SRC kinase (Gallus gallus, UniProt P00523, Y527F).
T1 construct: expressed in transfected cells; host or cells: NIH 3T3, stably transfected (gift of S. Courtneidge, Heidelberg)
The experiment in a line: Src kinase activity assay (immunoprecipitate from src-transformed NIH 3T3 cells). It is filed as biochemical, chicken. Particulars: read-out: IC50 (50% inhibition of phosphorylation) SRC kinase. Here is the method: Src kinase activity assay: src-transformed NIH 3T3 cells were grown in 24-well plates to confluency; rinsed twice with a solution containing 20 mM Tris, 0.1 mM sodium-o-vanadate, and 150 mM NaCl (pH 7.5); and lysed in 100 μl/well of lysis buffer containing 20 mM Tris (pH 8.0), 150 mM NaCl, 1% Nonidet P-40, 2.5 mM EDTA, 10 mM NaF, 1% trasylol, and 20 μm leupeptin. The lysate was clarified by centrifugation and subjected to immunoprecipitation with the anti-Src monoclonal antibody MAb 327 (Oncogene Science; 0.5 μg antibody/80 μg protein) for 1 hour at 4° C. Then, goat anti-mouse IgG (Sigma; 0.2 μg per 0.5 μg monoclonal antibody 327) was added and incubation was continued for 30 mi followed by another 40 min of incubation with 10 μl of protein A-Sepharose Cl-4B (Pharmacia). The immunoprecipitates were washed five times with the lysis buffer and twice with kinase buffer containing 40 mM Hepes (pH 7.4), 0.5 mM dithiothreitol, 5 mM MnCl2, and 0.1 mM sodium-o-vanadate. The immunoprecipitates were suspended in kinase buffer and aliquots corresponding to 40 μg of cell lysate protein were preincubated with or without tyrphostin for 15 min at 30° C. Then, the kinase reaction was performed in the presence of 2 μg of acid-treated enolase and 10 μCi of [γ-^32 P]ATP (2 μM) in a final volume of 30 μl. The reaction was terminated by addition of SDS-PAGE sample buffer (6% SDS, 30% β-mercaptoetlhanol, 40% glycerol, and 0.5 mg/ml bromophenol blue) and the incorporation of radioactivity in the enolase was analyzed by SDS-PAGE and autoradiography as well as Phosphor-Imager quantification.

For test [3], the target named is T2, PDGF β-receptor (Sus scrofa, UniProt F1RL75).
T2 construct: PDGF-BB stimulated; immunoprecipitated with PDGF beta-receptor specific antiserum R3
T2 sequence (F1RL75 109-1181): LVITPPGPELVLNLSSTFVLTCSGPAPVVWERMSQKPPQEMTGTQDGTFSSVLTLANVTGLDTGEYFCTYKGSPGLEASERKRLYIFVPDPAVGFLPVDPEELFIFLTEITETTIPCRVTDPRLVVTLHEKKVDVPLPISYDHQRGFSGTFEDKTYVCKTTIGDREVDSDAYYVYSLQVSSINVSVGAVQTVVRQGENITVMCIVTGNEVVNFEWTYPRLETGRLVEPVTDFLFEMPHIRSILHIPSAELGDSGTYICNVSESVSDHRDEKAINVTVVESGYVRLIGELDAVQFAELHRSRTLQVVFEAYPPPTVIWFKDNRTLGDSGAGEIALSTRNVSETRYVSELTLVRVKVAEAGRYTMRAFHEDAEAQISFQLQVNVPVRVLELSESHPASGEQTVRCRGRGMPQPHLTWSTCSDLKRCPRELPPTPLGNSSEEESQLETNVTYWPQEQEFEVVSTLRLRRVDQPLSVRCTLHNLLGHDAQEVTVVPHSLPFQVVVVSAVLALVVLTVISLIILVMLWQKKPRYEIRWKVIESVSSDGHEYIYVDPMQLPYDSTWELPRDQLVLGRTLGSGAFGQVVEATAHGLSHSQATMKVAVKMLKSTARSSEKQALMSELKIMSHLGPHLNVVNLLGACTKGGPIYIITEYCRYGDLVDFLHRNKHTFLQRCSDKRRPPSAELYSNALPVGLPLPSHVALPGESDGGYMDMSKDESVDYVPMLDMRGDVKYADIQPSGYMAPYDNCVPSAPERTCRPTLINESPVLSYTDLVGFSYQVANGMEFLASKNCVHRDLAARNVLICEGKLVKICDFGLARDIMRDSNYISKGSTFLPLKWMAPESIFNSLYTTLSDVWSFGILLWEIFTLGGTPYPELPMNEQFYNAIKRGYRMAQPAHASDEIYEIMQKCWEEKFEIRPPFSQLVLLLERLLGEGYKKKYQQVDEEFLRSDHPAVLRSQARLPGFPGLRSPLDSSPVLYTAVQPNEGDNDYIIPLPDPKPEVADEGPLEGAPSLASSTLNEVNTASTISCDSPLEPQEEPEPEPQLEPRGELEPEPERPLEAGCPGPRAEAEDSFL
The experiment in a line: PDGF induced PDGFR autophosphorylation in intact SMC cells. Particulars: porcine arterial SMC; for inhibition of PDGF-BB induced PDGF β-receptor tyrosine-phosphorylation: tyrphostin 10 μM, 60 min preincubation, PDGF-BB 100 ng/ml. Type of test: cell-based. Here is the method:
Effect of tyrphostins on PDGF induced PDGFR autophosphorylation in intact SMC cells: Subconfluent porcine arterial smooth muscle cells, cultivated in Dulbecco's modified Eagle's medium (DMEM) supplemented with 15% fetal calf serum (FCS), were synchronized for 20 hours in a medium containing 2% FCS. […] After stimulation, the cells were solubilized in Nonidet P-40 (1%) containing lysis buffer.
The analysis of PDGF p-receptor phosphorylation was performed as follows. Cell lysates were subjected to immunoprecipitation using the PDGF β-receptor specific antiserum R3 [5]. The percipitates were subjected to polyacrylamide (7.5%) gel electrophoresis in presence of sodium deducyl sulfate (SDS-PAGE) and were thereafter blotted onto a nitrocellulose membrane (Hybond C-EXTRA, Amersham). Phosphorylated proteins were detected by immunoblotting using the horseradish-peroxidase conjugated phosphotyrosine antibody RC20H (Transduction Laboratories), followed by chemoluminescence-based detection (ECL, Amersham) and autoradiography.
Detection of receptor proteins was performed as follows. Cell lysates were subjected to immunoprecipitation using the PDGF β-receptor specific antiserum R3 [5], as described above, and the percipitates washed three times and thereafter subjected to SDS-PAGE (7.5%) and blotting onto a nitrocellulose membrane (Hybond C-EXTRA, Amersham). Receptor proteins were detected by immunoblotting using the horseradish-peroxidase conjugated donkey anti-rabbit antibody (Amersham), followed by chemoluminescence-based detection (ECL, Amersham) and autoradiography.

Test [4] addresses T3, EGFR (Mus musculus, UniProt Q01279).
T3 construct: Membranes were prepared from confluent cultures of Swiss 3T3 cells; endogenous in cells; host or cells: Swiss 3T3 (obtained from E. Rozengurt, London)
In words: EGFR autophosphorylation, isolated membranes or intact Swiss 3T3 cells. It is filed as biochemical. Conditions: read-out: IC50 (50% inhibition of phosphorylation) EGFR.
Procedure: Membrane autophosphorylation assays: Membranes were prepared from confluent cultures of Swiss 3T3 cells as described [22]. For measuring receptor autophosphorylation, 10 μg membrane protein per assay were incubated for 20 min on ice in the presence of 1.2 μg/ml EGF or 2 μg/ml PDGF, or both; 50 mM Hepes (pH 7.5); and 3 mm MnCl2 (final concentrations) in a volume of 45 μl. In order to test the effects and determine the IC50 value of various tyrphostins, these were added in a volume of 0.5 μl (in DMSO; final concentration, 0.5%) 15 min before addition of the growth factors, in a range of concentrations. […] For quantification of radioactivity in electrophoresis gels, a Phospho-Imager (Molecular Dynamics, Fuji, or Bio-Rad) was used according to the instructions of the manufacturers. […]

Molecules are shown by their SMILES.

T3 sequence (Q01279 25-1210): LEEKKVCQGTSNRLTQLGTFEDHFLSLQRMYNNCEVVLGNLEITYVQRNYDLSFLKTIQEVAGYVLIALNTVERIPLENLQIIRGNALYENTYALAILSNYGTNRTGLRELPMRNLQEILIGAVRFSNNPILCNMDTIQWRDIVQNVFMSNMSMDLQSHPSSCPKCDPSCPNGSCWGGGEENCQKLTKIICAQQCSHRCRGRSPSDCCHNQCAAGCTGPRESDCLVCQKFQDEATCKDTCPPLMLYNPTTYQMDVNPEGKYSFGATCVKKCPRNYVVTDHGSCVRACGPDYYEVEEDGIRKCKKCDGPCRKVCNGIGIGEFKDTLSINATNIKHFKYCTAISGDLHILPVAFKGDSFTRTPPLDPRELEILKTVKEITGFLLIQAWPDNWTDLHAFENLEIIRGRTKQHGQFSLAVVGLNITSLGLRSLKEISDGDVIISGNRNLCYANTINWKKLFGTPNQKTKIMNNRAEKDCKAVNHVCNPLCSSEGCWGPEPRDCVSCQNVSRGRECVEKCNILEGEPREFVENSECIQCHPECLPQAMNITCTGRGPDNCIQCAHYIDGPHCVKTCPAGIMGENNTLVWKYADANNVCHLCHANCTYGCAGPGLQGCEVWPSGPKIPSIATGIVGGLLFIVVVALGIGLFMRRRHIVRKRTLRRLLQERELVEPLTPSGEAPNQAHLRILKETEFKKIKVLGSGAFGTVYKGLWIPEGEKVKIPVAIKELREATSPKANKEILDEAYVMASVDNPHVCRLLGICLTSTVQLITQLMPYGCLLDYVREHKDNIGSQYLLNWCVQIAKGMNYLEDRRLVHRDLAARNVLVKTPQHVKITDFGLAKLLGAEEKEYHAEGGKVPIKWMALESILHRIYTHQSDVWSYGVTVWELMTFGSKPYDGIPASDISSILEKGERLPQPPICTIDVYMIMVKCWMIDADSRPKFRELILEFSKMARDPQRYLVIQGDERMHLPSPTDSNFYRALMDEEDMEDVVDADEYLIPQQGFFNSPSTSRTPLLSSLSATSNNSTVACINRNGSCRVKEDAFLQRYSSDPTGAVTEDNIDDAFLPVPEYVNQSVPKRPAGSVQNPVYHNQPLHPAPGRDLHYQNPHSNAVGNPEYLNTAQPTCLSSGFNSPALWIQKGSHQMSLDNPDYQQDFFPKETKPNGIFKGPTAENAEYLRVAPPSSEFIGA

Regarding `Cc1nc2cc3nc(-c4ccccc4)cnc3cc2n1C` [AG1851], the results for the IC50 in test [1], in test [2] and in test [4] were 5000 nM, more than 30 µM and more than 30 µM, respectively. For the same molecule, the “level of PDGF β-receptor protein present in the cells” value in test [3] is on record as “without affecting the level”. The “inhibition of PDGF-BB induced PDGF β-receptor tyrosine-phosphorylation” value in test [3] is reported as “completely inhibited”.

Consider `Cc1nc2cc3nc(-c4cccs4)cnc3cc2n1C` [AG1992], for which the IC50 in test [1] was 1000 nM; in test [2] it was more than 30 µM; in test [4], more than 30 µM. The “level of PDGF β-receptor protein present in the cells” value in test [3] was “without affecting the level”. Moreover, the “inhibition of PDGF-BB induced PDGF β-receptor tyrosine-phosphorylation” value in test [3] is given as “completely inhibited”.
